Assay [1] concerns Tyrosine-protein phosphatase non-receptor type 7 (Homo sapiens), P35236 [UNDEFINED MUTATION]. Nature of the assay: Inhibition of allosterically sensitized mutant form of His6-tagged human wild-type HePTP catalytic domain at 1.92 uM using pNPP as substrate incubated for 90 mins by quenched phosphatase activity assay.
Assay [2] has as its system T1, Tyrosine-protein phosphatase non-receptor type 7 (Homo sapiens), P35236 [P171C,V205C].
T1 sequence (whole entry): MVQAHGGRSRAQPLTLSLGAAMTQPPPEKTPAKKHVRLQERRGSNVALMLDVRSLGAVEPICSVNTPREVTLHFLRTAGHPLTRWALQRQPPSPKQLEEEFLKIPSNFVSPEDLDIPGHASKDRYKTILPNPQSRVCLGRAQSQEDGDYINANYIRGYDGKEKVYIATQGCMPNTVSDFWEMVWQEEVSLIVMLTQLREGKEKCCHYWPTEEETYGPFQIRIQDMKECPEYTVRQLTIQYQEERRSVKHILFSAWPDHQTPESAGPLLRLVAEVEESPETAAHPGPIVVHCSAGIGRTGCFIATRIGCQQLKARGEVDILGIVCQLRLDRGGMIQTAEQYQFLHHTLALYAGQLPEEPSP
Nature of the assay: Inhibition of allosterically sensitized mutant form of His6-tagged human HePTP catalytic domain using pNPP as substrate incubated for 90 mins by quenched phosphatase activity assay.

Assay [3] concerns the target T2, Tyrosine-protein phosphatase non-receptor type 7 (Homo sapiens) (UniProt P35236).
T2 sequence (whole entry): T1 sequence (whole entry) with C171P, C205V
The assay can be described thus: Inhibition of His6-tagged human wild-type HePTP catalytic domain at 1 uM using pNPP as substrate incubated for 90 mins by quenched phosphatase activity assay.

The test system of assay [4] is T1, Tyrosine-protein phosphatase non-receptor type 7 (Homo sapiens), P35236 [P171C,V205C]. Nature of the assay: Inhibition of allosterically sensitized mutant form of His6-tagged human HePTP catalytic domain at 500 nM using pNPP as substrate incubated for 90 mins by quenched phosphatase activity assay.
For assay [5], the target named is Tyrosine-protein phosphatase non-receptor type 13 (Homo sapiens) (UniProt Q12923). The assay can be described thus: Inhibition of allosterically sensitized mutant form of His6-tagged human FAP1 catalytic domain at 500 nM using pNPP as substrate incubated for 90 mins by quenched phosphatase activity assay.
Tyrosine-protein phosphatase non-receptor type 13 (Homo sapiens), sequence (Q12923 whole entry, the tested form may be a part): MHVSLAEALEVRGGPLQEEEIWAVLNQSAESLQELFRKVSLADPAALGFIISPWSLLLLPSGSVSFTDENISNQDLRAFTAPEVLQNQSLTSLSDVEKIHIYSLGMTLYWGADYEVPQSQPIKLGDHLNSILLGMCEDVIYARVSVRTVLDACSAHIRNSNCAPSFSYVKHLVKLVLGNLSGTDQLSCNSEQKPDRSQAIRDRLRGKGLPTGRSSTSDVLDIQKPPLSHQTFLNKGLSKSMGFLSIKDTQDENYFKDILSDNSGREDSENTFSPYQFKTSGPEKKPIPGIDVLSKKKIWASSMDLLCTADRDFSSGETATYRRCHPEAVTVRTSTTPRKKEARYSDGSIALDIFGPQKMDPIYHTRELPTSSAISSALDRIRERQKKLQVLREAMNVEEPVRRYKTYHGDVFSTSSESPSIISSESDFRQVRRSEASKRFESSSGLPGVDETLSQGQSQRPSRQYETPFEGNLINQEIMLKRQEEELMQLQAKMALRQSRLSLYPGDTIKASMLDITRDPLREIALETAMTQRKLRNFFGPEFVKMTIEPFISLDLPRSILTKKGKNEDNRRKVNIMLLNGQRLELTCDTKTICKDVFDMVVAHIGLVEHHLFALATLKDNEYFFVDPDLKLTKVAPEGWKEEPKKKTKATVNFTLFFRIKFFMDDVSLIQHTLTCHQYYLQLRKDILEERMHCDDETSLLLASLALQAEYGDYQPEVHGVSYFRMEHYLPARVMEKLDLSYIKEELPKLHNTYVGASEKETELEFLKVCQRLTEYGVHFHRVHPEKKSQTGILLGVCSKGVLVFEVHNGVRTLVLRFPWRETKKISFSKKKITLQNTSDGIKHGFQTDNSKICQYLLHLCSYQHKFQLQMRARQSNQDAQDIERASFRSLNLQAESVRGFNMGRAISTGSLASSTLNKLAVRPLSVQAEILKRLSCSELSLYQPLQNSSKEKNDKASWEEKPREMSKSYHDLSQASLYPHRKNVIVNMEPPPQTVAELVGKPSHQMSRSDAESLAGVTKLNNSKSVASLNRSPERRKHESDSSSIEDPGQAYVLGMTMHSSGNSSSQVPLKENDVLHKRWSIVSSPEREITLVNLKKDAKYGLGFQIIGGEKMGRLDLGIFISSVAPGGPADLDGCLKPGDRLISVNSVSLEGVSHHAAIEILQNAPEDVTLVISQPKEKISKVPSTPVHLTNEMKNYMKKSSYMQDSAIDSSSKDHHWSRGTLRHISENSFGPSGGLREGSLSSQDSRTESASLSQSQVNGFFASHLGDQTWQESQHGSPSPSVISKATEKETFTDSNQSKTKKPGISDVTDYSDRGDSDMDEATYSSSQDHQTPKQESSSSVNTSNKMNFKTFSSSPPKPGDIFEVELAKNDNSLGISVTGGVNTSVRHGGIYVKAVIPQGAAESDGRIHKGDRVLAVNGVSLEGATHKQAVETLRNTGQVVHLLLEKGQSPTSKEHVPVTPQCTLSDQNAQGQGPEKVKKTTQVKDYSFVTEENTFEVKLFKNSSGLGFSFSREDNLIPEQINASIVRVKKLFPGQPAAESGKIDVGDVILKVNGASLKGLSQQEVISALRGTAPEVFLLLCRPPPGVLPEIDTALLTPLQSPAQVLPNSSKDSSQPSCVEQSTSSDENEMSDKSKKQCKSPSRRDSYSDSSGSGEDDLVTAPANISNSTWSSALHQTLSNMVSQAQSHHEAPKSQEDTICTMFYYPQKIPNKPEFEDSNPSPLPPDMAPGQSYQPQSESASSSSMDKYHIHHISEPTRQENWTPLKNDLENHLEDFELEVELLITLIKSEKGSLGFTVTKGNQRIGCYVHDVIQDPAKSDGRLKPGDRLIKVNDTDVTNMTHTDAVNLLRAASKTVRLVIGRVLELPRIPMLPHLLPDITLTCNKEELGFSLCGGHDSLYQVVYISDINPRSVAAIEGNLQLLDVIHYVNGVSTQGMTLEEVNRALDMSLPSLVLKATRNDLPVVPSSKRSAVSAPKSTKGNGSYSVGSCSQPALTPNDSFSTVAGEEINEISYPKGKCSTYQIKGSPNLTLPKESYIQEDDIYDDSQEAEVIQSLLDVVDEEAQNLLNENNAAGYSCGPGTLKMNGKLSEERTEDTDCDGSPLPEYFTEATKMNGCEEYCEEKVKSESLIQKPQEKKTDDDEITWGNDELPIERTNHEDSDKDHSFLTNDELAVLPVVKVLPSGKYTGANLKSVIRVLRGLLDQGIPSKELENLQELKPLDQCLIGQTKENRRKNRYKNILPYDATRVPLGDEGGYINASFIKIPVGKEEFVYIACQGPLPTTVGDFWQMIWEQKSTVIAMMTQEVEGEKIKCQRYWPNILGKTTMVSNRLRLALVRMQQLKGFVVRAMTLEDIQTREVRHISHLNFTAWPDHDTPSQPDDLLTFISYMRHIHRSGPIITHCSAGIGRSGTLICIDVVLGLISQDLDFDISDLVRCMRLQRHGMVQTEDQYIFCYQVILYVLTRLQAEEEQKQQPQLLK
The target of assay [6] is Tyrosine-protein phosphatase non-receptor type 6 (Homo sapiens) (UniProt P29350). Nature of the assay: Inhibition of allosterically sensitized mutant form of His6-tagged human SHP1 catalytic domain at 500 nM using pNPP as substrate incubated for 90 mins by quenched phosphatase activity assay.
Tyrosine-protein phosphatase non-receptor type 6 (Homo sapiens), sequence (P29350 whole entry, the tested form may be a part): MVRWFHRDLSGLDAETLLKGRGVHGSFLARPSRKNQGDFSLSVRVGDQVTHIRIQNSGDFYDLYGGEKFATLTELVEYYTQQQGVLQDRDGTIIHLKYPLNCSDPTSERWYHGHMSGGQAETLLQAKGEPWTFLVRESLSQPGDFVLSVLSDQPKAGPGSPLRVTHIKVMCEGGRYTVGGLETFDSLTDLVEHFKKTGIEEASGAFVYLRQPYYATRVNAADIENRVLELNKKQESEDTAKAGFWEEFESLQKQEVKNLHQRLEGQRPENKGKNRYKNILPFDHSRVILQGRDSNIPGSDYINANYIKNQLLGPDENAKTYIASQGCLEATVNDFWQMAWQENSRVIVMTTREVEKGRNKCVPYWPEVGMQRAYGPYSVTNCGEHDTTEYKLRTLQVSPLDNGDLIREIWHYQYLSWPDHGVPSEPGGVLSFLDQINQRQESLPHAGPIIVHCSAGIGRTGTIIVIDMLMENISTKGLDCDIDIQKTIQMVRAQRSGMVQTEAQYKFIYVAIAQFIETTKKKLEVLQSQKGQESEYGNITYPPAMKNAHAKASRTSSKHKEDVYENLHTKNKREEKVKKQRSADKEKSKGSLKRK
The species named for the next assay is Homo sapiens. Nature of the assay: Inhibition of His6-tagged human wild-type PTP catalytic domain at 500 nM using pNPP as substrate incubated for 90 mins by quenched phosphatase activity assay.
The test system of assay [7] is T1, Tyrosine-protein phosphatase non-receptor type 7 (Homo sapiens), P35236 [P171C,V205C]. The assay can be described thus: Inhibition of allosterically sensitized mutant form of His6-tagged human HePTP catalytic domain at 1 uM using pNPP as substrate measured up to 10 mins by quenched phosphatase activity assay.
In assay [8] the test system is T3, Tyrosine-protein phosphatase non-receptor type 1 (Homo sapiens), P18031 [P87C,A122C].
T3 sequence (whole entry): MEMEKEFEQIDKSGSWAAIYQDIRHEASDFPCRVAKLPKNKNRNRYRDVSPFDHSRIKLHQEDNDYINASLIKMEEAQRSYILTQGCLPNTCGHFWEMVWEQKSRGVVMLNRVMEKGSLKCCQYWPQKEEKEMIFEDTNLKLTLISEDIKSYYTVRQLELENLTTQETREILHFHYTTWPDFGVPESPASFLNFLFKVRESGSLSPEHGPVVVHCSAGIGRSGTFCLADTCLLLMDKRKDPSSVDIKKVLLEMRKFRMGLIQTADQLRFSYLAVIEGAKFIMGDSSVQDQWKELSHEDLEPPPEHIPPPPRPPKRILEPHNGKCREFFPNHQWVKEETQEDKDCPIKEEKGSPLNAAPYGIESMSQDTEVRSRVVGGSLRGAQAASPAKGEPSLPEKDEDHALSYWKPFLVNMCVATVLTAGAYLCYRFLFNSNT
The assay can be described thus: Inhibition of allosterically sensitized His6-tagged human PTP1B catalytic domain P87C/A122C mutant at 250 nM using pNPP as substrate incubated for 90 mins by quenched phosphatase activity assay.

In assay [9] the target is T4, Tyrosine-protein phosphatase non-receptor type 11 (Homo sapiens) (UniProt Q06124).
T4 sequence (whole entry): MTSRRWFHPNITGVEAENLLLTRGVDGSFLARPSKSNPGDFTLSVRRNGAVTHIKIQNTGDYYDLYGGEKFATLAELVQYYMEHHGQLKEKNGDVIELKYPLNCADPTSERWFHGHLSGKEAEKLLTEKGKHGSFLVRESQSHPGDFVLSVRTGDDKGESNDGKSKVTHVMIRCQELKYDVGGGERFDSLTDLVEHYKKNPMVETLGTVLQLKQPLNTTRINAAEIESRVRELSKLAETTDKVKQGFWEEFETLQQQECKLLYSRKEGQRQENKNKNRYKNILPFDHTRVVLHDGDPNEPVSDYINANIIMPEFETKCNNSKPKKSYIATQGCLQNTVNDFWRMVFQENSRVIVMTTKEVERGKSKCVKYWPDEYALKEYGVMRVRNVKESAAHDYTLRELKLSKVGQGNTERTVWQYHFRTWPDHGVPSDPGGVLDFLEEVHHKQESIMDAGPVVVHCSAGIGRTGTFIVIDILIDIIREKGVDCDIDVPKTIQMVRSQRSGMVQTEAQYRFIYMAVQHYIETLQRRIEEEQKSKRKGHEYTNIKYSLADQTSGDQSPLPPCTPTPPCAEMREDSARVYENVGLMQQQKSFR
The assay can be described thus: Inhibition of allosterically sensitized mutant form of His6-tagged human SHP2 catalytic domain at 500 nM at 500 nM using pNPP as substrate incubated for 90 mins by quenched phosphatase activity assay.

The target in assay [10] is T4, Tyrosine-protein phosphatase non-receptor type 11 (Homo sapiens). The assay can be described thus: Inhibition of allosterically sensitized mutant form of His6-tagged human SHP2 containing SHP1 and […] SH2 domain at 500 nM at 500 nM using pNPP as substrate incubated for 90 mins by quenched phosphatase activity assay.

Where a chain is given by its changes, count along the chain named. Active and inactive are the calls of the source. No cut-off for these calls is given here.

Tyrosine-protein phosphatase non-receptor type 7 (Homo sapiens), P35236 [UNDEFINED MUTATION], sequence (P35236 whole entry, looked up, stated change not applied, the tested form may be a part): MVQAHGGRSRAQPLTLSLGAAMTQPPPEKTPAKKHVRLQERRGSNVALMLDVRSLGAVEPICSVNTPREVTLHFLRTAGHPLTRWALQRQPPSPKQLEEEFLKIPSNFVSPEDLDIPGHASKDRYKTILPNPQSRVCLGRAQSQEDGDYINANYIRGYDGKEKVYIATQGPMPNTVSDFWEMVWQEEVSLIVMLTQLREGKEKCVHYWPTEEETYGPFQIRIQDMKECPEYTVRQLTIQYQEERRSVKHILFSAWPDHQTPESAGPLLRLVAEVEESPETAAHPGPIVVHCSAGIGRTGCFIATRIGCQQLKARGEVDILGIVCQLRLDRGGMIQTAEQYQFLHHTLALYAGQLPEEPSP

As to `O=C(O)c1c(F)c(F)c(F)c(F)c1-c1c2ccc(=O)c([As]3SCCS3)c-2oc2c([As]3SCCS3)c(O)ccc12`, the inhibition result in [1] was “Active”.

As for `O=C(O)c1ccccc1-c1c2cc(Cl)c(=O)c([As]3SCCS3)c-2oc2c([As]3SCCS3)c(O)c(Cl)cc12`, the inhibition result in assay [1] was “Active”.

For the compound `O=c1ccc2nc3ccc(O)c([As]4SCCS4)c3oc-2c1[As]1SCCS1`, the inhibition entry in assay [2] is “Dose-dependent effect”; in assay [7] it was 50%. Further, the inhibition entry in assay [3] was “inactive”. Further, the inhibition entry (in assay [4]; in [5]; in assay [6]; in the assay listed under Homo sapiens; in assay [8]) was “Active” throughout.

Consider `O=C(O)c1ccccc1-c1c2cc(F)c(=O)c([As]3SCCS3)c-2oc2c([As]3SCCS3)c(O)c(F)cc12`, for which, in assay [1], the inhibition result was “Active”.

On to `CCc1cc2c(-c3ccccc3C(=O)O)c3cc(CC)c(=O)c([As]4SCCS4)c-3oc2c([As]2SCCS2)c1O`, for which the inhibition result in [1] is “Active”.

As for `CCCCNC(=O)c1ccc(-c2c3ccc(=O)c([As]4SCCS4)c-3oc3c([As]4SCCS4)c(O)ccc23)c(C(=O)O)c1`, the inhibition entry in assay [1] is “Active”.

As for `O=C(O)c1ccc(-c2c3ccc(=O)c([As]4SCCS4)c-3oc3c([As]4SCCS4)c(O)ccc23)c(C(=O)O)c1`, the inhibition result in assay [1] is “Active”.

For `CC1(C)C(/C=C/C=C/C=C2/N(CCCCS(=O)(=O)O)c3ccc([As]4SCCS4)cc3C2(C)C)=[N+](CCCCS(=O)(=O)O)c2ccc([As]3SCCS3)cc21`, the inhibition result (in assay [4]; in assay [5]; in [6]; in the assay filed under Homo sapiens; in [8]) was “Active” in each case. Further, the inhibition result in assay [9] and in assay [10] was “inactive” in each case.

Broadly, the inhibition is the change of the read-out against control, counted positive when it falls.

The values above are taken from ChEMBL document CHEMBL4118135, “Optimized allosteric inhibition of engineered protein tyrosine phosphatases with an expanded palette of biarsenical small molecules” (Bioorg Med Chem, 2018).
